Assay results from patent publication US11512090B2, “Muscarinic acetylcholine M1 receptor antagonists” (PIPELINE THERAPEUTICS, INC., priority 2018, dated 2022).
Where two headings read alike, the source gives them in different places.

What was measured:
Type in all cases: cell-based
[1] = molecular target: M3 (Homo sapiens, UniProt P20309); assay: In vitro functional assay of muscarinic acetylcholine receptor activity, M3; details: antagonist IC50 at M3; read-out: M3 IC50
[2] = molecular target: T1, human M1 receptor (Homo sapiens, UniProt P11229); assay: In vitro functional assay of muscarinic acetylcholine receptor activity (aequorin calcium flux, antagonist mode vs EC80 acetylcholine), M1
T1 sequence (P11229 1-460): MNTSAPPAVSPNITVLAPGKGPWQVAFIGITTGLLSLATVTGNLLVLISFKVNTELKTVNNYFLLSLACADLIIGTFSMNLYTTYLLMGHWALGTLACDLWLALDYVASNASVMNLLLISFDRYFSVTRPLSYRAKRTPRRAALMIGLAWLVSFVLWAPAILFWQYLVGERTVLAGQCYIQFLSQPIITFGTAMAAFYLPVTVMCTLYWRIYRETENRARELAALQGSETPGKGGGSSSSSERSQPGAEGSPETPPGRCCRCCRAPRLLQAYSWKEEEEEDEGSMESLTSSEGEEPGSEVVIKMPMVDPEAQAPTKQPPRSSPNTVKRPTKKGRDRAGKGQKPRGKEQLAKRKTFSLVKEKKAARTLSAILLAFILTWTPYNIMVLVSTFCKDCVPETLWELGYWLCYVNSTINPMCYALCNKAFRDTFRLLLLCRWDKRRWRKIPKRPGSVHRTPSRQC
How it was run: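 Antagonism at M1 was measured as a concentration-dependent reduction of the EC80 acetylcholine-evoked aequorin luminescence, from which IC50 was derived. Human M1 CHO-K1 aequorin cells were first loaded with 5 uM coelenterazine h for 4 h and exposed to compound for 30 min at room temperature.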

[3] = molecular target: T2, M2 (Homo sapiens, UniProt P08172); assay: In vitro functional assay of muscarinic acetylcholine receptor activity, M2
T2 sequence (P08172 1-466): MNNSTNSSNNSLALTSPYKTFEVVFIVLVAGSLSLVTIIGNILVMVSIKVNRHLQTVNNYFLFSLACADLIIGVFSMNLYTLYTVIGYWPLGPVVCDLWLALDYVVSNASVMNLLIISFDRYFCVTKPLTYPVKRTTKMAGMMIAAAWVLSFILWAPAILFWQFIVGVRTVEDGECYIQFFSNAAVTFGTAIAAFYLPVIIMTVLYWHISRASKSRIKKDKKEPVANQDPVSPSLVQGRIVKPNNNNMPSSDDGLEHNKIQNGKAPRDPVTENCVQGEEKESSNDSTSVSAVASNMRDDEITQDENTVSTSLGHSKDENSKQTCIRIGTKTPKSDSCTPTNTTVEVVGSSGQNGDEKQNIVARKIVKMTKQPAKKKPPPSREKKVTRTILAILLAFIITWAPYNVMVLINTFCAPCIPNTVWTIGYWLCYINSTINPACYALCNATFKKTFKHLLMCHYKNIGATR

[4] = antagonist IC50 at M2, read-out: M2 IC50
[5] = CHO-K1 cells stably expressing human M1 receptor with Aequorin, decrease in EC80 acetylcholine response, read-out: M1 IC50

Sequence of M3 (P20309 whole entry): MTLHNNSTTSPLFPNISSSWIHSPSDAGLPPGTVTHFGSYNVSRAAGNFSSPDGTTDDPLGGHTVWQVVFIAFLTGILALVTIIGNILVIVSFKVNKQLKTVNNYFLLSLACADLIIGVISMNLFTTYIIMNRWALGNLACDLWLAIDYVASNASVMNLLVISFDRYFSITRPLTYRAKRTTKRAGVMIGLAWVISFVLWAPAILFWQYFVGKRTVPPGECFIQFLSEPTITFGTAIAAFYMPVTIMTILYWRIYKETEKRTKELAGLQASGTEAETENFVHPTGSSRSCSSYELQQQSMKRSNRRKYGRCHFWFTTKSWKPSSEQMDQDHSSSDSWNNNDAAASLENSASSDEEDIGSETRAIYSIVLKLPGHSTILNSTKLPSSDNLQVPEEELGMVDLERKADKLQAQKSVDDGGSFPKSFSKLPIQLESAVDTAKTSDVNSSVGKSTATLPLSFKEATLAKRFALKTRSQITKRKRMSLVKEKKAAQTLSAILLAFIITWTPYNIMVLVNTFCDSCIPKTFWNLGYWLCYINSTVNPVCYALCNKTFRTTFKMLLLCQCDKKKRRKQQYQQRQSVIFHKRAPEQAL

Compound	IC50 [1] [nM]	IC50 [2] [nM]	IC50 [3, 4] [nM]	IC50 [2, 5] [nM]	IC50 [3] [nM]
Cc1ccc2ncnn2c1CNCCC(=O)N1CC2CCC(C1)N2c1ccc(C#N)cn1 [Example 173, 6-(3-{3-[({6-methyl-[1,2,4]triazolo[1,5-a]pyridin-5-yl}methyl)amino]propanoyl}-3,8-diazabicyclo[3.2.1]octan-8-yl)pyridine-3-carbonitrile]	> 10000	100 to 1000	> 10000	–	–
N#Cc1ccc(N2C3CCC2CN(C(=O)CCN(Cc2cccc4ncnn24)C2COC2)C3)nc1 [Example 174, 6-(3-{3-[(oxetan-3-yl)({[1,2,4]triazolo[1,5-a]pyridin-5-yl}methyl)amino]propanoyl}-3,8-diazabicyclo[3.2.1]octan-8-yl)pyridine-3-carbonitrile]	> 10000	100 to 1000	> 10000	–	–
N#Cc1ccc(-c2ccc(N3C4CCC3CN(C(=O)CCNCc3cccc5ncnn35)C4)cc2)nc1 [Example 175, 6-[4-(3-{3-[({[1,2,4]triazolo[1,5-a]pyridin-5-yl}methyl)amino]propanoyl}-3,8-diazabicyclo[3.2.1]octan-8-yl)phenyl]pyridine-3-carbonitrile]	> 10000	100 to 1000	1000 to 10000	–	–
Cc1ccc(COCCC(=O)N2CC3CCC(C2)N3c2ccc(C#N)cn2)c2cccnc12 [Example 176, 6-(3-{3-[(8-methylquinolin-5-yl)methoxy]propanoyl}-3,8-diazabicyclo[3.2.1]octan-8-yl)pyridine-3-carbonitrile]	> 10000	100 to 1000	1000 to 10000	–	–
Cc1ccc2ncccc2c1COCCC(=O)N1CC2CCC(C1)N2c1ccc(C#N)cn1 [Example 177, 6-(3-{3-[(6-methylquinolin-5-yl)methoxy]propanoyl}-3,8-diazabicyclo[3.2.1]octan-8-yl)pyridine-3-carbonitrile]	1000 to 10000	< 100	1000 to 10000	–	–
COc1cnc2cccc(CNCCC(=O)N3CC4CCC(C3)N4c3ccc(Cl)cn3)c2c1 [Example 178, 1-[8-(5-chloropyridin-2-yl)-3,8-diazabicyclo[3.2.1]octan-3-yl]-3-{[(3-methoxyquinolin-5-yl)methyl]amino}propan-1-one]	> 10000	100 to 1000	> 10000	–	–
O=C(COCCc1cccn2ncnc12)N1CC2CCC(C1)N2c1ccc(Cl)cn1 [Example 179, 1-[8-(5-chloropyridin-2-yl)-3,8-diazabicyclo[3.2.1]octan-3-yl]-2-(2-{[1,2,4]triazolo[1,5-a]pyridin-8-yl}ethoxy)ethan-1-one]	> 10000	< 100	> 10000	–	–
N#Cc1ccc(N2C3CCC2CN(C(=O)COCCc2cccn4ncnc24)C3)nc1 [Example 180, 6-{3-[2-(2-{[1,2,4]triazolo[1,5-a]pyridin-8-yl}ethoxy)acetyl]-3,8-diazabicyclo[3.2.1]octan-8-yl}pyridine-3-carbonitrile]	> 10000	< 100	1000 to 10000	–	–
COc1cnc2cccc(CCOCC(=O)N3CC4CCC(C3)N4c3ccc(C#N)cn3)c2c1 [Example 181, 6-(3-{2-[2-(3-methoxyquinolin-5-yl)ethoxy]acetyl}-3,8-diazabicyclo[3.2.1]octan-8-yl)pyridine-3-carbonitrile]	1000 to 10000	< 100	1000 to 10000	–	–
N#Cc1ccc(N2C3CCC2CN(C(=O)COCc2cccc4ncnn24)C3)nc1 [Example 182, 6-{3-[2-({[1,2,4]triazolo[1,5-a]pyridin-5-yl}methoxy)acetyl]-3,8-diazabicyclo[3.2.1]octan-8-yl}pyridine-3-carbonitrile]	> 10000	–	> 10000	1000 to 10000	–
N#Cc1ccc(N2C3CCC2CN(C(=O)COCCc2cccc4ncnn24)C3)nc1 [Example 183, 6-{3-[2-(2-{[1,2,4]triazolo[1,5-a]pyridin-5-yl}ethoxy)acetyl]-3,8-diazabicyclo[3.2.1]octan-8-yl}pyridine-3-carbonitrile]	1000 to 10000	< 100	> 10000	–	–
N#Cc1ccc(N2C3CCC2CN(C(=O)COCc2cccn4ncnc24)C3)nc1 [Example 184, 6-{3-[2-({[1,2,4]triazolo[1,5-a]pyridin-8-yl}methoxy)acetyl]-3,8-diazabicyclo[3.2.1]octan-8-yl}pyridine-3-carbonitrile]	> 10000	< 100	> 10000	–	–
N#Cc1ccc(N2C3CCC2CN(C(=O)CCOCc2cccc4nccn24)C3)nc1 [Example 186, 6-{3-[3-({imidazo[1,2-a]pyridin-5-yl}methoxy)propanoyl]-3,8-diazabicyclo[3.2.1]octan-8-yl}pyridine-3-carbonitrile]	1000 to 10000	< 100	> 10000	–	–
N#Cc1ccc(N2C3CCC2CN(C(=O)CCOCc2cccc4c2OCO4)C3)nc1 [Example 187, 6-(3-{3-[(2H-1,3-benzodioxol-4-yl)methoxy]propanoyl}-3,8-diazabicyclo[3.2.1]octan-8-yl)pyridine-3-carbonitrile]	> 10000	100 to 1000	> 10000	–	–
N#Cc1ccc(N2C3CCC2CN(C(=O)CCOCc2cccc4ncc(C(F)(F)F)n24)C3)nc1 [Example 188, 6-[3-(3-{[3-(trifluoromethyl)imidazo[1,2-a]pyridin-5-yl)methoxy}propanoyl)-3,8-diazabicyclo[3.2.1]octan-8-yl)pyridine-3-carbonitrile]	> 10000	–	1000 to 10000	1000 to 10000	–
O=C(CCNCc1cccc2ncnn12)N1CC2CCC(C1)N2c1ccc(-c2ccccc2)cn1 [Example 193, 1-[8-(5-phenylpyridin-2-yl)-3,8-diazabicyclo[3.2.1]octan-3-yl]-3-[({[1,2,4]triazolo[1,5-a]pyridin-5-yl}methyl)amino]propan-1-one]	1000 to 10000	–	> 10000	1000 to 10000	–
N#Cc1ccc(N2C3CCC2CN(C(=O)C2CC(=Cc4cccc5ncccc45)C2)C3)nc1 (stereo not drawn) [Example 194, 6-(3-{3-[(quinolin-5-yl)methylidene]cyclobutanecarbonyl}-3,8-diazabicyclo[3.2.1]octan-8-yl)pyridine-3-carbonitrile]	1000 to 10000	< 100	–	–	100 to 1000
N#Cc1ccc(N2C3CCC2CN(C(=O)C2CC(=Cc4cccc5cnccc45)C2)C3)nc1 (stereo not drawn) [Example 195, 6-(3-{3-[(isoquinolin-5-yl)methylidene]cyclobutanecarbonyl}-3,8-diazabicyclo[3.2.1]octan-8-yl)pyridine-3-carbonitrile]	1000 to 10000	–	1000 to 10000	1000 to 10000	–
N#Cc1ccc(N2C3CCC2CN(C(=O)[C@H]2C[C@H](Oc4cccc5ncsc45)C2)C3)nc1 [Example 197, 6-{3-[(1r,3r)-3-(1,3-benzothiazol-7-yloxy)cyclobutanecarbonyl]-3,8-diazabicyclo[3.2.1]octan-8-yl}pyridine-3-carbonitrile]	> 10000	100 to 1000	> 10000	–	–
